Values joined by “and” are separate entries in the source; they are usually repeats but may differ in a detail not shown here. Identical values can stand only once. Like-named read-outs stand apart in the source and are kept apart here. Bridge positions count the residues as written; N and C are the ends. Square brackets hold non-standard residues; d marks the D form. Peptide text beside a SMILES is read from it. * marks the point of attachment. hArg = N=C(N)NCCCC[C@H](N)C(=O)O; Pentanoyl = CCCCC(=O)*

The target of one assay is PCSK9 (Homo sapiens, UniProt Q8NBP7). Put plainly: PCSK9/EGF(A) TR-FRET binding assay. On the technique in general: In TR-FRET formats the signal depends on donor and acceptor labels being close together.
Sequence of PCSK9 (Q8NBP7 153-692): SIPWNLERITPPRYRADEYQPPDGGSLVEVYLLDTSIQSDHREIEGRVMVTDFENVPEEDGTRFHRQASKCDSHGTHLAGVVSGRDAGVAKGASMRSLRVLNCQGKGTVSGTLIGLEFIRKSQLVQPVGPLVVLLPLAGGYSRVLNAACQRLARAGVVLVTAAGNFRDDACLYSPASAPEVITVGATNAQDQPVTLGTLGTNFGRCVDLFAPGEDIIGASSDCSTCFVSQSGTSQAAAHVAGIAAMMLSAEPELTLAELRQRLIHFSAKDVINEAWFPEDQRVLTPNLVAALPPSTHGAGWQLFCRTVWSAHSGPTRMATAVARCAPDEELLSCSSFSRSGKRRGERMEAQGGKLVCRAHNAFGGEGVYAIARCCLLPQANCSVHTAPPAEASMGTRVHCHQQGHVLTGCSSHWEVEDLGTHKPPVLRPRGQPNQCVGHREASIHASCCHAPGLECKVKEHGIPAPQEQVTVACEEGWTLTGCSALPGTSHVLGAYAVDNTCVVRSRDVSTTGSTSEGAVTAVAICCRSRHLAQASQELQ
Sequence of PCSK9 (Q8NBP7 31-152 partner limits assumed): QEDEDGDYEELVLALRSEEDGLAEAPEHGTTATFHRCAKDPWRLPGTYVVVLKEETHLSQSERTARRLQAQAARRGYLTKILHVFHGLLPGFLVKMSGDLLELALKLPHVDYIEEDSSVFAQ
The next assay deals with His-EGF(A)-Fc. Put plainly: His-EGF(A)-Fc TR-FRET counterscreen.
A further assay deals with T1, PCSK9Δhelix (Homo sapiens, UniProt Q8NBP7).
T1 construct: Human PCSK9 construct M1-Q692 with an engineered TEV site (residue deletion Y166, R167); made in house; host or cells: CHO
T1 sequence (Q8NBP7 with tags, fused parts or gaps limits assumed): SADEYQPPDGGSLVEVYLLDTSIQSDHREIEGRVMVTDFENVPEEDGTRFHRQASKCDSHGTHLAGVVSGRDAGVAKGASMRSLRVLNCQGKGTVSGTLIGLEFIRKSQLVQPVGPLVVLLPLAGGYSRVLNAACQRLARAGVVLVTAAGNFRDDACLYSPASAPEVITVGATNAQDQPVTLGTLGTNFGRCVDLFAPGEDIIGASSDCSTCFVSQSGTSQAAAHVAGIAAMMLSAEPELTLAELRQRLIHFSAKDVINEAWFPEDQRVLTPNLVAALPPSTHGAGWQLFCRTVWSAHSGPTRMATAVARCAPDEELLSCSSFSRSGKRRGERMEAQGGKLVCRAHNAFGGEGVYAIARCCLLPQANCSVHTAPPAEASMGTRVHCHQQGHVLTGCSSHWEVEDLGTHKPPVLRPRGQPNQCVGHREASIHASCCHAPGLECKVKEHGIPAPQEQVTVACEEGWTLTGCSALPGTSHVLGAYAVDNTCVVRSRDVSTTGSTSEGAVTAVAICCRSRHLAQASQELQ
T1 sequence (Q8NBP7 31-152 partner limits assumed): as the sequence (Q8NBP7 31-152 partner limits assumed) above
Put plainly: PCSK9Δhelix/Ab20 TR-FRET binding assay.

[1] abbreviates: TR-FRET, Example 7, read-out: PCSK9/EGF(A) IC50.
Where [2] appears, read: TR-FRET, Example 7, read-out: PCSK9Δhelix/Ab20 IC50.
Setting [3] is: TR-FRET, Table 8D, disulfide-cyclized extension peptides, read-out: PCSK9/EGF(A) IC50.
The mark [4] stands for this setting: TR-FRET counterscreen, Table 8D, * = some inhibition at highest concentrations, not sufficient to fit an IC50.
The mark [5] stands for this setting: TR-FRET, Table 8E, additional compounds, read-out: PCSK9/EGF(A) IC50.
Where [6] appears, read: TR-FRET counterscreen, Table 8E, additional compounds.

Method for His-EGF(A)-Fc: The former was based on a TF-FRET assay to measure the association of the EGF(A) domain of the LDLR to PCSK9 (“PCSK9/EGF(A) binding assay”) whilst the latter was based on a TR-FRET assay to measure binding of Ab20 to PCSK9Δhelix (“PCSK9Δhelix/Ab20 binding assay”).
The ability of compounds to inhibit binding to PCSK9 was evaluated with a panel of time-resolved fluorescence resonance energy transfer (TR-FRET) binding assays. […] The PCSK9Δhelix/Ab20 binding assay evaluated the ability of compounds to compete with Ab20 for binding to the N-terminal groove region in a His-tagged, PCSK9Δhelix construct. […] Signal generation in the PCSK9 binding assays was dependent upon the binding interaction to bring into close proximity the His-tag on the PCSK9 and the Fc-tag on the ligand. Anti-His-APC was bound to the His-tag, and anti-Fc-europium was bound to the Fc-tag. When these two antibodies were in close proximity and were irradiated with light at 340 nm, the europium was excited and emitted energy at 615 nm. This energy was taken up by the APC and was emitted as light at 665 nm. Compounds that competed with the ligand reduced the energy transfer and thus the emission at 665 nm. In the His-EGFA-Fc molecule in the counterscreen, the two tags were always in close proximity, thus any reduction in emission at 665 nm was due to interference with the detection system.
Compounds were solubilized and dilutions were prepared in DMSO. […] The plate was centrifuged to mix the well contents and allowed to incubate for 30 min. […] The TR-FRET signal was read on a ViewLux reader (PerkinElmer) with excitation at 340 nm and emission at 615 and 665 nm with a 50-μs time delay between excitation and measurement of emission. The TR-FRET ratio was calculated as the fluorescence emission at 665 nm divided by the fluorescence emission at 615 nm. The normalized TR-FRET ratios were plotted as a function of the compound concentrations, and the IC50 values were determined using a 4-parameter logistic regression.
In black 1536-well assay plates (MaKO, Aurora® Microplates, Whitefish, Mont.), 40 nL of peptide in DMSO were preincubated with 2 μL His-tagged PCSK9 plus anti-His-allophycocyanin in assay buffer (50 mM Tris-HCl, pH 7.5, 150 mM NaCl, 2 mM CaCl2, 0.01% Tween®-20, 0.1% bovine gamma globulins, and protease inhibitor cocktail) for 30 min. Then 2 μL of Fc-tagged ligand and anti-Fc-europium in assay buffer were added and allowed to incubate for 2 h.

Take `CC(=O)N[C@H](C(=O)N[C@H](C(=O)N[C@@H](Cc1ccccc1)C(=O)N[C@H](C(=O)N[C@@H](CO)C(=O)N[C@@H](Cc1c[nH]c2ccccc12)C(=O)N[C@@H](CCC(=O)O)C(=O)N[C@@H](CCC(=O)O)C(=O)N[C@@H](Cc1ccc(O)cc1)C(=O)N[C@@H](CC(C)C)C(=O)N[C@@H](CC(=O)O)C(=O)N[C@@H](Cc1c[nH]c2ccccc12)C(=O)N[C@H](C(=O)NCCCCCCCC(=O)N[C@@H](CCCCN)C(=O)N[C@@H](CC(C)C)C(=O)N[C@@H](Cc1c[nH]c2ccccc12)C(=O)N[C@@H](CC(N)=O)C(=O)N[C@@H](CC(C)C)C(=O)NCC(=O)N[C@@H](CCCNC(=N)N)C(=O)N[C@H](C(N)=O)C(C)C)C(C)C)[C@@H](C)O)C(C)C)[C@@H](C)O` [Compound 10]: the IC50 at PCSK9 (setting [1]) was 0.63 µM; with His-EGF(A)-Fc (counterscreen, Example 7), over 50 µM; at PCSK9Δhelix (setting [2]), 0.63 µM.

Take `CC[C@H](C)[C@@H]1NC(=O)[C@H](CCCNC(=N)N)NC(=O)[C@H](CCCCN)NC(=O)[C@H](CC(C)C)NC(=O)[C@H](CC(N)=O)NC(=O)[C@H](Cc2c[nH]c3ccccc23)NC(=O)[C@@H](NC(=O)CNC(=O)[C@H](CO)NC(=O)CNC(=O)CNC(=O)[C@@H](NC(=O)[C@H](Cc2c[nH]c3ccccc23)NC(=O)[C@H](CC(=O)O)NC(=O)[C@H](CC(C)C)NC(=O)[C@H](Cc2ccc(O)cc2)NC(=O)[C@H](CCC(=O)O)NC(=O)[C@H](CCC(=O)O)NC(=O)[C@H](Cc2c[nH]c3ccccc23)NC(=O)[C@H](CO)NC(=O)[C@@H](NC(=O)[C@H](Cc2ccccc2)NC(=O)[C@@H](NC(=O)[C@@H](NC(C)=O)[C@@H](C)O)C(C)C)[C@@H](C)O)C(C)C)CSSC[C@@H](C(N)=O)NC(=O)CNC(=O)[C@H](CCC(N)=O)NC(=O)[C@H](CO)NC(=O)CNC1=O` [Compound 13] (Ac-TVFTSWEEYLDWVGGSGCWNLKRIGSQGC-NH2; disulfide 18-29): the “inhibition in the PCSK9/EGF(A) binding assay” value at PCSK9 is on record as “potent inhibitors”. Besides, the IC50 on PCSK9 (setting [1]) is 0.01 µM; with His-EGF(A)-Fc (counterscreen, Example 7), over 50 µM; on PCSK9Δhelix (setting [2]) it was 0.001 µM. Besides, the “inhibition in the PCSK9Δhelix/Ab20 binding assay” value on PCSK9Δhelix is on record as “potent inhibitors”.

Turning to `CC[C@H](C)[C@@H]1NC(=O)[C@H](CCCNC(=N)N)NC(=O)[C@H](CCCCN)NC(=O)[C@H](CC(C)C)NC(=O)[C@H](CC(N)=O)NC(=O)[C@H](Cc2c[nH]c3ccccc23)NC(=O)[C@@H](NC(=O)CNC(=O)CNC(=O)[C@H](CO)NC(=O)CNC(=O)[C@@H](NC(=O)[C@H](Cc2c[nH]c3ccccc23)NC(=O)[C@H](CC(=O)O)NC(=O)[C@H](CC(C)C)NC(=O)[C@H](Cc2ccc(O)cc2)NC(=O)[C@H](CCC(=O)O)NC(=O)[C@H](CCC(=O)O)NC(=O)[C@H](Cc2c[nH]c3ccccc23)NC(=O)[C@H](CO)NC(=O)[C@@H](NC(=O)[C@H](Cc2ccccc2)NC(=O)[C@@H](NC(=O)[C@@H](NC(C)=O)[C@@H](C)O)C(C)C)[C@@H](C)O)C(C)C)CSSC[C@@H](C(N)=O)NC(=O)CNC(=O)[C@H](CCC(N)=O)NC(=O)[C@H](CO)NC(=O)CNC1=O` [Compound 14] (Ac-TVFTSWEEYLDWVGSGGCWNLKRIGSQGC-NH2; disulfide 18-29), the “inhibition in the PCSK9/EGF(A) binding assay” value at PCSK9 is recorded as “potent inhibitors”. Besides, the IC50 at PCSK9 (setting [1]) was 0.009 µM; with His-EGF(A)-Fc (counterscreen, Example 7), over 50 µM; on PCSK9Δhelix (setting [2]) it was 0.001 µM. Besides, the “inhibition in the PCSK9Δhelix/Ab20 binding assay” value on PCSK9Δhelix is “potent inhibitors”.

Consider `CC[C@H](C)[C@@H]1NC(=O)[C@H](CCCNC(=N)N)NC(=O)[C@H](CCCCN)NC(=O)[C@H](CC(C)C)NC(=O)[C@H](CC(N)=O)NC(=O)[C@H](Cc2c[nH]c3ccccc23)NC(=O)[C@@H](NC(=O)CCCCCCCNC(=O)[C@@H](NC(=O)[C@H](Cc2c[nH]c3ccccc23)NC(=O)[C@H](CC(=O)O)NC(=O)[C@H](CC(C)C)NC(=O)[C@H](Cc2ccc(O)cc2)NC(=O)[C@H](CCC(=O)O)NC(=O)[C@H](CCC(=O)O)NC(=O)[C@H](Cc2c[nH]c3ccccc23)NC(=O)[C@H](CO)NC(=O)[C@@H](NC(=O)[C@H](Cc2ccccc2)NC(=O)[C@@H](NC(=O)[C@@H](NC(C)=O)[C@@H](C)O)C(C)C)[C@@H](C)O)C(C)C)CSSC[C@@H](C(N)=O)NC(=O)CNC(=O)[C@H](CCC(N)=O)NC(=O)[C@H](CO)NC(=O)CNC1=O` [Compound 15], for which the “inhibition in the PCSK9/EGF(A) binding assay” value at PCSK9 was “maintained potency”. Moreover, the IC50 with His-EGF(A)-Fc (counterscreen, Example 7) was over 50 µM; at PCSK9Δhelix (setting [2]) it was 0.002 µM. For the same compound, the “inhibition in the PCSK9Δhelix/Ab20 binding assay” value at PCSK9Δhelix is on record as “maintained potency”.

With `CC[C@H](C)[C@@H]1NC(=O)[C@H](CCCNC(=N)N)NC(=O)[C@H](CCCCN)NC(=O)[C@H](CC(C)C)NC(=O)[C@H](CC(N)=O)NC(=O)[C@H](Cc2c[nH]c3ccccc23)NC(=O)[C@@H](NC(C)=O)CSSC[C@@H](C(N)=O)NC(=O)CNC(=O)[C@H](CCC(N)=O)NC(=O)[C@H](CO)NC(=O)CNC1=O` [Compound 21] (Ac-CWNLKRIGSQGC-NH2; disulfide 1-12), the IC50 on PCSK9 (setting [3]) is over 50 µM; with His-EGF(A)-Fc (setting [4]) it was over 50 µM; at PCSK9Δhelix (TR-FRET, Table 8D, disulfide-cyclized extension peptides, read-out: PCSK9Δhelix/Ab20 IC50), over 50 µM.

For `CC[C@H](C)[C@@H]1NC(=O)[C@H](CCCNC(=N)N)NC(=O)[C@H](CCCCN)NC(=O)[C@H](CC(C)C)NC(=O)[C@H](CC(N)=O)NC(=O)[C@H](Cc2c[nH]c3ccccc23)NC(=O)[C@@H](NC(=O)CNC(=O)[C@H](CO)NC(=O)CNC(C)=O)CSSC[C@@H](C(N)=O)NC(=O)CNC(=O)[C@H](CCC(N)=O)NC(=O)[C@H](CO)NC(=O)CNC1=O` [Compound 22] (Ac-GSGCWNLKRIGSQGC-NH2; disulfide 4-15 (inferred)), the IC50 was over 50 µM on PCSK9 (PCSK9/EGF(A) IC50, TR-FRET, Table 8D, disulfide-cyclized extension peptides); over 50 µM in the assay with His-EGF(A)-Fc (setting [4]); 14 µM and > 50 µM on PCSK9Δhelix (PCSK9Δhelix/Ab20 IC50, TR-FRET, Table 8D, disulfide-cyclized extension peptides).

For the compound `CC[C@H](C)[C@@H]1NC(=O)[C@H](CCCNC(=N)N)NC(=O)[C@H](CCCCN)NC(=O)[C@H](CC(C)C)NC(=O)[C@H](CC(N)=O)NC(=O)[C@H](Cc2c[nH]c3ccccc23)NC(=O)[C@@H](NC(=O)CCCCCCNC(=O)[C@@H](NC(=O)[C@H](Cc2c[nH]c3ccccc23)NC(=O)[C@H](CC(=O)O)NC(=O)[C@H](CC(C)C)NC(=O)[C@H](Cc2ccc(O)cc2)NC(=O)[C@H](CCC(=O)O)NC(=O)[C@H](CCC(=O)O)NC(=O)[C@H](Cc2c[nH]c3ccccc23)NC(=O)[C@H](CO)NC(=O)[C@@H](NC(=O)[C@H](Cc2ccccc2)NC(=O)[C@@H](NC(=O)[C@@H](NC(C)=O)[C@@H](C)O)C(C)C)[C@@H](C)O)C(C)C)CSSC[C@@H](C(N)=O)NC(=O)CNC(=O)[C@H](CCC(N)=O)NC(=O)[C@H](CO)NC(=O)CNC1=O` [Compound 24], the “inhibition in the PCSK9/EGF(A) binding assay” value on PCSK9 is “maintained potency”. The IC50 with His-EGF(A)-Fc (counterscreen, Example 7) is over 50 µM; on PCSK9Δhelix (setting [2]), 0.001 µM. In addition, on PCSK9Δhelix, the “inhibition in the PCSK9Δhelix/Ab20 binding assay” value is recorded as “maintained potency”.

On to `CC[C@H](C)[C@@H]1NC(=O)[C@H](CCCNC(=N)N)NC(=O)[C@H](CCC(N)=O)NC(=O)[C@H](CC(C)C)NC(=O)[C@H](CC(N)=O)NC(=O)[C@H](Cc2c[nH]c3ccccc23)NC(=O)[C@@H]2CCCN2C(=O)[C@H](CC(C)C)NC(=O)[C@H](CCCNC(=N)N)NC(=O)[C@@H](NC(C)=O)CSSC[C@@H](C(N)=O)NC(=O)CNC(=O)[C@H](CC(C)C)NC(=O)CNC1=O` [Compound 80] (Ac-CRLPWNLQRIGLGC-NH2; disulfide 1-14), for which the IC50 on PCSK9 (setting [3]) and with His-EGF(A)-Fc (setting [4]) was over 50 µM in each case.

Turning to `CC[C@H](C)[C@@H]1NC(=O)[C@H](CCCNC(=N)N)NC(=O)[C@H](CCC(N)=O)NC(=O)[C@H](CC(C)C)NC(=O)[C@H](CC(N)=O)NC(=O)[C@H](Cc2c[nH]c3ccccc23)NC(=O)[C@@H]2CCCN2C(=O)[C@H](CC(C)C)NC(=O)[C@H](CCCNC(=N)N)NC(=O)[C@H](NC(C)=O)CSSC[C@@H](C(N)=O)NC(=O)[C@@H]2CCCN2C(=O)[C@H](CC(C)C)NC(=O)CNC1=O` [Compound 110] (Ac-[dC]RLPWNLQRIGLPC-NH2; disulfide 1-14), the IC50 at PCSK9 (setting [3]) and in the assay with His-EGF(A)-Fc (setting [4]) was over 50 µM each time.

Regarding `CCCCC(=O)N[C@@H](Cc1c[nH]c2ccccc12)C(=O)N[C@@H](CC(N)=O)C(=O)N[C@@H](CC(C)C)C(=O)N[C@H](C(=O)N[C@@H](CCCNC(=N)N)C(=O)N[C@H](C(=O)NCC(=O)N[C@@H](CC(C)C)C(=O)N[C@@H](CCC(=O)O)C(=O)N[C@@H](CCCNC(=N)N)C(N)=O)[C@@H](C)CC)C(C)C` [Compound 177] (Pentanoyl-WNLVRIGLER-NH2), the IC50 at PCSK9 (setting [5]) and with His-EGF(A)-Fc (setting [6]) was at least 50 µM each time.

On to `CC[C@H](C)[C@H](NC(=O)[C@H](CCCCNC(=N)N)NC(=O)[C@H](CCCCN)NC(=O)[C@H](CC(C)C)NC(=O)[C@H](CC(N)=O)NC(=O)[C@H](Cc1c[nH]c2ccccc12)NC(=O)CNC(=O)[C@@H]1CCCN1C(=O)[C@H](Cc1ccccc1)NC(=O)[C@H](CO)NC(=O)[C@H](CCC(=O)O)NC(=O)[C@H](CCSC)NC(C)=O)C(=O)NCC(=O)N[C@@H](CC(C)C)C(=O)N[C@@H](CC(C)C)C(=O)N[C@@H](CCCNC(=N)N)C(N)=O` [Compound 233] (Ac-MESFPGWNLK[hArg]IGLLR-NH2), for which the IC50 on PCSK9 (setting [5]) was 3.1 µM; in the assay with His-EGF(A)-Fc (setting [6]), at least 50 µM.

Consider Ac-DSYPGWNLVRIGLLR-NH2 [Compound 155], for which the IC50 at PCSK9 (setting [5]) is 11 µM; with His-EGF(A)-Fc (setting [6]), over 50 µM.

Turning to Ac-ESYPGWNLVRIGLLR-NH2 [Compound 156], the IC50 at PCSK9 (setting [5]) was 11 µM; in the assay on His-EGF(A)-Fc (setting [6]), over 50 µM.

Turning to Ac-MDSFPGWNLVRIGLLR-NH2 [Compound 153], the IC50 on PCSK9 (setting [5]) is 12 µM; with His-EGF(A)-Fc (setting [6]) it was over 50 µM.

As to Ac-SFAFPGWNLVRIGLLR-NH2 [Compound 154], the IC50 at PCSK9 (setting [5]) is 11 µM; in the assay on His-EGF(A)-Fc (setting [6]) it was over 50 µM.

Values taken from US11034725B2, “Compositions and methods for treating cardiovascular disease” (Genentech, Inc., priority 2016, dated 2021).
